Reference: PMC10492836, “Chemical-induced phase transition and global conformational reorganization of chromatin” (Nature Communications, 2023)

Target: T1, histone H1
T1 construct: Recombinant histone H1 immobilized on CM5 chip
Assay: SPR (Biacore 8K, […] Langmuir fit); supported by in vitro co-condensation with H1-CFP
Format: binding

For `COc1cccc2c1C(=O)c1c(O)c3c(c(O)c1C2=O)C[C@@](O)(C(=O)CO)C[C@@H]3O[C@H]1C[C@H](N)[C@H](O)[C@H](C)O1` [adriamycin], the Kd was 1970 nM.
